Data from US10555987B2, “GHRH agonists for the treatment of ischemic disorders” (UNIVERSITY OF MIAMI, priority 2012, dated 2020).
Non-standard residues stand in square brackets, D forms with d. Residues, ends and D or L forms follow the SMILES beside them. *: point of attachment. Desaminotyrosyl = O=C(CCc1ccc(O)cc1)*; Nle = CCCC[C@H](N)C(=O)O; Orn = NCCC[C@H](N)C(=O)O; Abu = CC[C@H](N)C(=O)O; Aoc = NCCCCCCCC(=O)O

Key:
[1] = tested on: GH release; assay: In vivo endocrine activity, GH release after intravenous administration (Table 8); conditions: rat, i.v. injection
Method: In vivo tests on endocrine activity of new GHRH agonists (Intravenous administration). For in vivo tests based on intravenous administration, adult male Sprague-Dawley rats were anesthetized with pentobarbital (6 mg/100/g, b.w.), and GHRH agonists were injected 20 minutes after the injection of pentobarbital. Blood samples were taken from the jugular vein (pretreated level), immediately after hGHRH(1-29)NH2 injection (as a control) or after hGHRH analogs injection. Blood samples were taken from the jugular vein 5, 15 and 30 minutes after the injection. The blood samples were centrifuged, plasma was removed and the GH level was measured by ELISA.

[2] = molecular target: T1, GHRH receptor (Homo sapiens, UniProt Q02643); assay: GHRH receptor binding, competition with 125I-labeled JV-1-42, human pituitary membrane homogenates (Table 7); parameters: Normal human pituitaries were purchased from the National Hormone and Peptide Program; tissue National Hormone and Peptide Program (A.F. Parlow, Harbor-UCLA Medical Center, Torrance, Calif.); host or cells: normal human pituitary, membrane fraction; conditions: JI-38 = 1, Table 7
T1 sequence (Q02643 23-423): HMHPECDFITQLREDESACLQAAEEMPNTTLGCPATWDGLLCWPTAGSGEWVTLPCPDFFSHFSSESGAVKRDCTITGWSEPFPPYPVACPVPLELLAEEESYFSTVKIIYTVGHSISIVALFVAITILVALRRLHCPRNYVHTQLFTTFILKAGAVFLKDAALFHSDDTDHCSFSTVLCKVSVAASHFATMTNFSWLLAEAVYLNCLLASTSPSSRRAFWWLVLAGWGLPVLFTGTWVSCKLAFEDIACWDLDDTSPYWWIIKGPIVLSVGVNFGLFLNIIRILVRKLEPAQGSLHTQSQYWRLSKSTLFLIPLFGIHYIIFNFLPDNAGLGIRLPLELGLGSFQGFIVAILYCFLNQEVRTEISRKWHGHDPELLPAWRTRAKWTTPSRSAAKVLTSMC
From the text: Normal human pituitaries were purchased from the National Hormone and Peptide Program (A.F. Parlow, Los Angeles, County Harbor-UCLA Medical Center, Torrance, Calif.).

CCCC[C@H](NC(=O)[C@@H](NC(=O)[C@H](CC(=O)O)NC(=O)[C@H](CCC(N)=O)NC(=O)[C@H](CC(C)C)NC(=O)[C@H](CC(C)C)NC(=O)[C@H](CCCN)NC(=O)[C@H](CCCNC(=N)N)NC(=O)[C@H](C)NC(=O)[C@H](CO)NC(=O)[C@H](CC(C)C)NC(=O)[C@H](CCC(N)=O)NC(=O)[C@H](CC)NC(=O)[C@H](CC(C)C)NC(=O)[C@@H](NC(=O)[C@H](CCCN)NC(=O)[C@H](CCCNC(=N)N)NC(=O)[C@H](Cc1ccc(O)cc1)NC(=O)[C@H](CO)NC(=O)[C@H](CC(N)=O)NC(=O)[C@@H](NC(=O)[C@H](Cc1ccccc1)NC(=O)[C@@H](NC(=O)[C@H](C)NC(=O)[C@H](CC(=O)O)NC(=O)[C@@H](C)NC(=O)CCc1ccc(O)cc1)[C@@H](C)CC)[C@@H](C)O)C(C)C)[C@@H](C)CC)C(=O)N[C@@H](CC(=O)O)C(=O)N[C@@H](CCCNC(=N)N)C(=O)NCCCCCCCC(N)=O [Peptide P-21300, [Dat^1, D-Ala^2, Orn^12, Abu^15, Orn^21, Nle^27, Asp^28, Amc^30]hGHRH(1-30)NH2] (Desaminotyrosyl-[dA]DAIFTNSYR[Orn]VL[Abu]QLSAR[Orn]LLQDI[Nle]DR[Aoc]-NH2)
GH releasing potency in vivo relative to JI-38 (=1) ([1]; 5 min after): 0.39 | GH releasing potency in vivo relative to JI-38 (=1) ([1]; 15 min after): 0.51 | GH releasing potency in vivo relative to JI-38 (=1) ([1]; 30 min after): 0.81 | Relative affinity (Binding potency) vs JI-38 [2]: 1.20

[N—Me-Tyr^1, D-Ala^2, Gln^8, Orn^12, Abu^15, Orn^21, Nle^27, Asp^28, Apa^30]hGHRH(1-30)NH—CH2—CH3 [Peptide P-28475]
GH releasing potency in vivo relative to JI-38 (=1) ([1]; 5 min after): 0.19 | GH releasing potency in vivo relative to JI-38 (=1) ([1]; 15 min after): 0.36 | GH releasing potency in vivo relative to JI-38 (=1) ([1]; 30 min after): 0.92

[N—Me-Tyr^1, D-Ala^2, Gln^8, Orn^12, Abu^15, Orn^21, Nle^27, Asp^28, Har^30]hGHRH(1-30)NH—CH3 [Peptide P-27450]
GH releasing potency in vivo relative to JI-38 (=1) ([1]; 5 min after): 0.07 | GH releasing potency in vivo relative to JI-38 (=1) ([1]; 15 min after): 0.11 | GH releasing potency in vivo relative to JI-38 (=1) ([1]; 30 min after): 0.49
